Test results taken from US20240109917A1 (ACTELION PHARMACEUTICALS LTD, priority 2020, published 2024).
Read-outs that look alike come from different tables or passages of the source.

Assays:
[1] = molecular target: His6-TEV-PDGFRβ (557-1016) (Homo sapiens (Human), UniProt P09619); assay: PDGFRβ HTRF Assay; assay type: biochemical; details: read-out: PDGFR HTRF IC50
Method in brief: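 Human PDGFRβ (557-1016) pre-incubated with compound for 30 min at RT in pH 7.5 HEPES/MgCl2/EGTA/Brij-35/DTT buffer. Reaction started with ATP and TK-biotin peptide, run 3 h at RT, then quenched with EDTA-containing Eu-cryptate antibody/streptavidin-XL665. HTRF 665/620 nm ratio read after 60 min; percent inhibition relative to DMSO and 10 μM imatinib controls.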

[2] = molecular target: Tb-labeled inactive PDGFRβ (Homo sapiens (Human), UniProt P09619); assay: PDGFRβ LanthaScreen Assay; assay type: binding; details: read-out: PDGFR Lantha IC50
PDGFRβ = PDGFRβ (Rattus norvegicus (Rat), UniProt Q05030); assay: PDGFRβ Cellular Assay (PDGFRb P-Y751 HTRF in A10 cells stimulated with PDGF-BB); assay type: cell-based
Method in brief: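 Rat A10 cells, plated overnight, were treated with compound for 3 hours, then stimulated with PDGF-BB (working stock 100 ng/mL in 10% FBS medium). After lysis, PDGFRβ P-Y751 was detected by HTRF.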

Chain of Tb-labeled inactive PDGFRβ (P09619 33-1106): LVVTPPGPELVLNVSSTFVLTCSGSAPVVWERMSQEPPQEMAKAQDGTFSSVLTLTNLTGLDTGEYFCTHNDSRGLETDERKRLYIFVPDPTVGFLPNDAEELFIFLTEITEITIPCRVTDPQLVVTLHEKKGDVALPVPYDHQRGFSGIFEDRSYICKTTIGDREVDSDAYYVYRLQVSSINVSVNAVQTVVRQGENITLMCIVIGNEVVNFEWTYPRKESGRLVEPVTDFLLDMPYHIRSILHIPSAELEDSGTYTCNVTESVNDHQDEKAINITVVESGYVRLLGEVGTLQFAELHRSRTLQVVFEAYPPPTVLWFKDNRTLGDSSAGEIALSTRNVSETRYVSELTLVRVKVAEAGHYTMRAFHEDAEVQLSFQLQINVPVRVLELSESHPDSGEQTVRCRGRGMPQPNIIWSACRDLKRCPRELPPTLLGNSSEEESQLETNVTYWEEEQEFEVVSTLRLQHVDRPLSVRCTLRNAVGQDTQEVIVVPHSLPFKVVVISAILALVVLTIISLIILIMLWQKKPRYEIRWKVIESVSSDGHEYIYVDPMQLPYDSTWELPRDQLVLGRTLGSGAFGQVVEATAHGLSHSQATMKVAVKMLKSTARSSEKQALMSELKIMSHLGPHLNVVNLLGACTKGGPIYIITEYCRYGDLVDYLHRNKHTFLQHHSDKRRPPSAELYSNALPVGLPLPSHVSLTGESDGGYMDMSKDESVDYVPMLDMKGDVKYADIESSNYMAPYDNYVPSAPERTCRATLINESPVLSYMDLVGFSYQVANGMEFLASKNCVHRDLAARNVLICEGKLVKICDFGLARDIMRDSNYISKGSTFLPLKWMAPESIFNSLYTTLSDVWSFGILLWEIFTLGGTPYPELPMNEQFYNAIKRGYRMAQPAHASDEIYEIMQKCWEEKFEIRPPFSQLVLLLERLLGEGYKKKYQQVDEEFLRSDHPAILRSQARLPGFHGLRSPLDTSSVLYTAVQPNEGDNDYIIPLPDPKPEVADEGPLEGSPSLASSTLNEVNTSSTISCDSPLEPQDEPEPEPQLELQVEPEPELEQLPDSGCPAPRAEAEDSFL
Chain of His6-TEV-PDGFRβ (557-1016) (P09619 557-1016): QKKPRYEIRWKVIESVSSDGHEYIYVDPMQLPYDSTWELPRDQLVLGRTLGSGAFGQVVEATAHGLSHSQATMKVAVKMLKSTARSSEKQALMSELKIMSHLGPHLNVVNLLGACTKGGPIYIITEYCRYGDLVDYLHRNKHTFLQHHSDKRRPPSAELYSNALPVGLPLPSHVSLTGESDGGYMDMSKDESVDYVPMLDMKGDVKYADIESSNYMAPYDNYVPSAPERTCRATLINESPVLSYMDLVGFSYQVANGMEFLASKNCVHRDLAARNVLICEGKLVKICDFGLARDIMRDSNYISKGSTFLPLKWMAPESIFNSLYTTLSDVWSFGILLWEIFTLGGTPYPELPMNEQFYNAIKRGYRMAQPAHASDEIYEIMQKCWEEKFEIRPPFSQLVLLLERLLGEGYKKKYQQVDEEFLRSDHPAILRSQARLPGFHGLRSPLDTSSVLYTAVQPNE
Chain of PDGFRβ (Q05030 32-1097): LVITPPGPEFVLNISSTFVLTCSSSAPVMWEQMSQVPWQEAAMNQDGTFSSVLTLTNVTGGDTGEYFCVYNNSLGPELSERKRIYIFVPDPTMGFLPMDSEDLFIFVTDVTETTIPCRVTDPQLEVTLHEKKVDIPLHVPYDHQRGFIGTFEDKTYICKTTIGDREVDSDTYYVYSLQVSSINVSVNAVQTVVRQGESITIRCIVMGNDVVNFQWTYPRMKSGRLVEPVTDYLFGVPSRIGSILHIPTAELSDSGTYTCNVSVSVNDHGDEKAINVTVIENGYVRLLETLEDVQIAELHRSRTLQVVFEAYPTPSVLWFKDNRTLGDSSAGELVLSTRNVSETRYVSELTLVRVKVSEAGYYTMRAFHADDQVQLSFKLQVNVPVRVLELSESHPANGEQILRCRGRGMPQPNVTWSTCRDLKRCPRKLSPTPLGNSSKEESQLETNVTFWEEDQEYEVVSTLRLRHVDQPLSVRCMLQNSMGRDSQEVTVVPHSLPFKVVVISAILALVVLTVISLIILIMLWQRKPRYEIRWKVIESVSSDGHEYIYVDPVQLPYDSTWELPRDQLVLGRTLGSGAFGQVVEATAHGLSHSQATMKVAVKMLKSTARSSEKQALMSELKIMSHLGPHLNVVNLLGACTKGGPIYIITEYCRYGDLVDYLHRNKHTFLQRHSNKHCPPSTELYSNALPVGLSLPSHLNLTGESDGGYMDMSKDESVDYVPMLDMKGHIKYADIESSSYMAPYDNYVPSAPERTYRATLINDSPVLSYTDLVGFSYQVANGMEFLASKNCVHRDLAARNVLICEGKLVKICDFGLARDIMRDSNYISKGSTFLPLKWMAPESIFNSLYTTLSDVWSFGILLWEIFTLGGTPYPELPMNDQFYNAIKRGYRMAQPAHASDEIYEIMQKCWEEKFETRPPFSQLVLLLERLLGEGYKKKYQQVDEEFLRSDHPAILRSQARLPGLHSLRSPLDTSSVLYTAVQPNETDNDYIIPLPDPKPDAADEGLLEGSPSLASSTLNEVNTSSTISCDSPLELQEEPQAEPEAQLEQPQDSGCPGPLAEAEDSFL

| Structure (SMILES) | IC50 [1] [nM] | IC50 [2] [nM] | IC50 (PDGFRβ; read-out: PDGFR Cellular IC50) [nM] | IC50 (PDGFRβ; PDGFR Cellular IC50) [nM] |
| --- | --- | --- | --- | --- |
| Cc1ncc(NC(=O)CN2CC(C)(C)C2)cc1NC(=O)c1cnn2cc(-c3cnn(CC4CC4)c3)sc12 [Example 270, 2-(1-(cyclopropylmethyl)-1H-pyrazol-4-yl)-N-(5-(2-(3,3-dimethylazetidin-1-yl)acetamido)-2-methylpyridin-3-yl)pyrazolo[5,1-b]thiazole-7-carboxamide] | 0.4 | 5.4 | 4.8 |  |
| Cc1ncc(NC(=O)CN2CC(C)(C)C2)cc1NC(=O)c1cnn2cc(-c3cn[nH]c3)sc12 [Example 271, N-(5-(2-(3,3-dimethylazetidin-1-yl)acetamido)-2-methylpyridin-3-yl)-2-(1H-pyrazol-4-yl)pyrazolo[5,1-b]thiazole-7-carboxamide] | 0.2 | 2.8 | 10.3 |  |
| Cc1ncc(NC(=O)CN2CC(C)(C)C2)cc1NC(=O)c1cnn2cc(-c3ccc(C4(O)COC4)cc3)sc12 [Example 272, N-(5-(2-(3,3-dimethylazetidin-1-yl)acetamido)-2-methylpyridin-3-yl)-2-(4-(3-hydroxyoxetan-3-yl)phenyl)pyrazolo[5,1-b]thiazole-7-carboxamide] | 0.2 | 1.4 | 5.6 |  |
| CC(=O)Nc1cc(-c2cn3ncc(C(=O)Nc4cc(NC(=O)CN5CC(C)(C)C5)cnc4C)c3s2)ccn1 [Example 273, 2-(2-acetamidopyridin-4-yl)-N-(5-(2-(3,3-dimethylazetidin-1-yl)acetamido)-2-methylpyridin-3-yl)pyrazolo[5,1-b]thiazole-7-carboxamide] | 0.2 | 3.6 | 13.7 |  |
| CNC(=O)c1cc(-c2cn3ncc(C(=O)Nc4cc(NC(=O)CN5CC(C)(C)C5)cnc4C)c3s2)ccn1 [Example 274, N-(5-(2-(3,3-dimethylazetidin-1-yl)acetamido)-2-methylpyridin-3-yl)-2-(2-(methylcarbamoyl)pyridin-4-yl)pyrazolo[5,1-b]thiazole-7-carboxamide] | 1 | 21.4 | 51.8 |  |
| Cc1ncc(NC(=O)CN2CC(C)(C)C2)cc1NC(=O)c1cnn2cc(-c3ccn(S(C)(=O)=O)c3)sc12 [Example 275, N-(5-(2-(3,3-dimethylazetidin-1-yl)acetamido)-2-methylpyridin-3-yl)-2-(1-(methylsulfonyl)-1H-pyrrol-3-yl)pyrazolo[5,1-b]thiazole-7-carboxamide] | 0.2 | 2.5 |  | 7.6 |
| CC(=O)Nc1cncc(-c2cn3ncc(C(=O)Nc4cc(NC(=O)CN5CC(C)(C)C5)cnc4C)c3s2)c1 [Example 277, 2-(5-acetamidopyridin-3-yl)-N-(5-(2-(3,3-dimethylazetidin-1-yl)acetamido)-2-methylpyridin-3-yl)pyrazolo[5,1-b]thiazole-7-carboxamide] | 0.4 | 5.7 | 142 |  |
| Cc1ncc(NC(=O)CN2CC(C)(C)C2)cc1NC(=O)c1cnn2cc(-c3ccc(CO)s3)sc12 [Example 278, N-(5-(2-(3,3-dimethylazetidin-1-yl)acetamido)-2-methylpyridin-3-yl)-2-(5-(hydroxymethyl)thiophen-2-yl)pyrazolo[5,1-b]thiazole-7-carboxamide] | 0.2 | 1.4 | 1.5 |  |
| CNC(=O)Cn1cc(-c2cn3ncc(C(=O)Nc4cc(NC(=O)CN5CC(C)(C)C5)cnc4C)c3s2)cn1 [Example 279, N-(5-(2-(3,3-dimethylazetidin-1-yl)acetamido)-2-methylpyridin-3-yl)-2-(1-(2-(methylamino)-2-oxoethyl)-1H-pyrazol-4-yl)pyrazolo[5,1-b]thiazole-7-carboxamide] | 0.4 | 8.6 | 134 |  |
| Cc1ncc(NC(=O)CN2CC(C)(C)C2)cc1NC(=O)c1cnn2cc(-c3cnn(C4CCS(=O)(=O)CC4)c3)sc12 [Example 280, N-(5-(2-(3,3-dimethylazetidin-1-yl)acetamido)-2-methylpyridin-3-yl)-2-(1-(1,1-dioxidotetrahydro-2H-thiopyran-4-yl)-1H-pyrazol-4-yl)pyrazolo[5,1-b]thiazole-7-carboxamide] | 0.3 | 4.3 | 85.9 |  |
| Cc1ncc(NC(=O)CN2CC(C)(C)C2)cc1NC(=O)c1cnn2cc(-c3cnn(CC(C)O)c3)sc12 (stereo not drawn) [Example 281, N-(5-(2-(3,3-dimethylazetidin-1-yl)acetamido)-2-methylpyridin-3-yl)-2-(1-(2-hydroxypropyl)-1H-pyrazol-4-yl)pyrazolo[5,1-b]thiazole-7-carboxamide] | 0.4 | 3.8 | 10.9 |  |
| Cc1ncc(NC(=O)CN2CC(C)(C)C2)cc1NC(=O)c1cnn2cc(-c3ccsc3)sc12 [Example 282, N-(5-(2-(3,3-dimethylazetidin-1-yl)acetamido)-2-methylpyridin-3-yl)-2-(thiophen-3-yl)pyrazolo[5,1-b]thiazole-7-carboxamide] | 0.1 | 1.2 | 0.9 |  |
| Cc1ncc(NC(=O)CN2CC(C)(C)C2)cc1NC(=O)c1cnn2cc(-c3ccoc3)sc12 [Example 283, N-(5-(2-(3,3-dimethylazetidin-1-yl)acetamido)-2-methylpyridin-3-yl)-2-(furan-3-yl)pyrazolo[5,1-b]thiazole-7-carboxamide] | 0.1 | 2.2 | 1.5 |  |
| Cc1ncc(NC(=O)CN2CC(C)(C)C2)cc1NC(=O)c1cnn2cc(-c3ccnc(N4CCOCC4)c3)sc12 [Example 284, N-(5-(2-(3,3-dimethylazetidin-1-yl)acetamido)-2-methylpyridin-3-yl)-2-(2-morpholinopyridin-4-yl)pyrazolo[5,1-b]thiazole-7-carboxamide] | 0.2 | 2.6 | 2.8 |  |
| Cc1ncc(NC(=O)CN2CC(C)(C)C2)cc1NC(=O)c1cnn2cc(-c3cc[nH]c3)sc12 [Example 285, N-(5-(2-(3,3-dimethylazetidin-1-yl)acetamido)-2-methylpyridin-3-yl)-2-(1H-pyrrol-3-yl)pyrazolo[5,1-b]thiazole-7-carboxamide] | 0.1 | 1.3 | 1.2 |  |
| Cc1ncc(NC(=O)CN2CC(C)(C)C2)cc1NC(=O)c1cnn2cc(-c3cccc4c3cnn4C)sc12 [Example 286, N-(5-(2-(3,3-dimethylazetidin-1-yl)acetamido)-2-methylpyridin-3-yl)-2-(1-methyl-1H-indazol-4-yl)pyrazolo[5,1-b]thiazole-7-carboxamide] | 0.1 | 1 | 1.4 |  |
| Cc1ncc(NC(=O)CN2CC(C)(C)C2)cc1NC(=O)c1cnn2cc(-c3c[nH]c4ccccc34)sc12 [Example 287, N-(5-(2-(3,3-dimethylazetidin-1-yl)acetamido)-2-methylpyridin-3-yl)-2-(1H-indol-3-yl)pyrazolo[5,1-b]thiazole-7-carboxamide] | 0.1 | 0.8 | 1.8 |  |
| Cc1ncc(NC(=O)CN2CC(C)(C)C2)cc1NC(=O)c1cnn2cc(-c3cnc4[nH]ncc4c3)sc12 [Example 288, N-(5-(2-(3,3-dimethylazetidin-1-yl)acetamido)-2-methylpyridin-3-yl)-2-(1H-pyrazolo[3,4-b]pyridin-5-yl)pyrazolo[5,1-b]thiazole-7-carboxamide] | 0.4 | 11.5 | 13.5 |  |
| Cc1ncc(NC(=O)CN2CC(C)(C)C2)cc1NC(=O)c1cnn2cc(-c3cnn(-c4cccnc4)c3)sc12 [Example 289, N-(5-(2-(3,3-dimethylazetidin-1-yl)acetamido)-2-methylpyridin-3-yl)-2-(1-(pyridin-3-yl)-1H-pyrazol-4-yl)pyrazolo[5,1-b]thiazole-7-carboxamide] | 0.3 | 7.1 | 4.4 |  |
| Cc1ncc(NC(=O)CN2CC(C)(C)C2)cc1NC(=O)c1cnn2cc(-c3cnn(CCO)c3)sc12 [Example 290, N-(5-(2-(3,3-dimethylazetidin-1-yl)acetamido)-2-methylpyridin-3-yl)-2-(1-(2-hydroxyethyl)-1H-pyrazol-4-yl)pyrazolo[5,1-b]thiazole-7-carboxamide] | 0.4 | 3.3 | 19.5 |  |
| Cc1ncc(NC(=O)CN2CC(C)(C)C2)cc1NC(=O)c1cnn2cc(-c3ccc(CO)o3)sc12 [Example 292, N-(5-(2-(3,3-dimethylazetidin-1-yl)acetamido)-2-methylpyridin-3-yl)-2-(5-(hydroxymethyl)furan-2-yl)pyrazolo[5,1-b]thiazole-7-carboxamide] | 0.3 | 2.2 | 4.2 |  |
| Cc1ncc(NC(=O)CN2CC(C)(C)C2)cc1NC(=O)c1cnn2cc(-c3cnn(C4CCNCC4)c3)sc12 [Example 293, N-(5-(2-(3,3-dimethylazetidin-1-yl)acetamido)-2-methylpyridin-3-yl)-2-(1-(piperidin-4-yl)-1H-pyrazol-4-yl)pyrazolo[5,1-b]thiazole-7-carboxamide] | 0.4 | 4.6 | 337 |  |
| Cc1ncc(NC(=O)CN(C)C2CCOCC2)cc1NC(=O)c1cnn2cc(-c3cnn(C4CC4)c3)sc12 [Example 294, 2-(1-cyclopropyl-1H-pyrazol-4-yl)-N-(2-methyl-5-(2-(methyl(tetrahydro-2H-pyran-4-yl)amino)acetamido)pyridin-3-yl)pyrazolo[5,1-b]thiazole-7-carboxamide] | 0.3 | 5.1 | 12.7 |  |
